Laboratory results published in patent US20220194938A1, “NOVEL COMPOUNDS AND PHARMACEUTICAL COMPOSITIONS THEREOF FOR THE TREATMENT OF INFLAMMATORY DISORDERS” (GALAPAGOS NV, priority 2019, published 2022).
Where two headings read alike, the source gives them in different places.

Experiments:
hERG channel = molecular target: T1, hERG channel (Homo sapiens, UniProt Q12809); assay: hERG channel test - manual patch clamp assay; format: cell-based; details: HEK293 cells stably transfected with hERG, tail current
T1 construct: host or cells: HEK293
T1 sequence (Q12809 whole entry): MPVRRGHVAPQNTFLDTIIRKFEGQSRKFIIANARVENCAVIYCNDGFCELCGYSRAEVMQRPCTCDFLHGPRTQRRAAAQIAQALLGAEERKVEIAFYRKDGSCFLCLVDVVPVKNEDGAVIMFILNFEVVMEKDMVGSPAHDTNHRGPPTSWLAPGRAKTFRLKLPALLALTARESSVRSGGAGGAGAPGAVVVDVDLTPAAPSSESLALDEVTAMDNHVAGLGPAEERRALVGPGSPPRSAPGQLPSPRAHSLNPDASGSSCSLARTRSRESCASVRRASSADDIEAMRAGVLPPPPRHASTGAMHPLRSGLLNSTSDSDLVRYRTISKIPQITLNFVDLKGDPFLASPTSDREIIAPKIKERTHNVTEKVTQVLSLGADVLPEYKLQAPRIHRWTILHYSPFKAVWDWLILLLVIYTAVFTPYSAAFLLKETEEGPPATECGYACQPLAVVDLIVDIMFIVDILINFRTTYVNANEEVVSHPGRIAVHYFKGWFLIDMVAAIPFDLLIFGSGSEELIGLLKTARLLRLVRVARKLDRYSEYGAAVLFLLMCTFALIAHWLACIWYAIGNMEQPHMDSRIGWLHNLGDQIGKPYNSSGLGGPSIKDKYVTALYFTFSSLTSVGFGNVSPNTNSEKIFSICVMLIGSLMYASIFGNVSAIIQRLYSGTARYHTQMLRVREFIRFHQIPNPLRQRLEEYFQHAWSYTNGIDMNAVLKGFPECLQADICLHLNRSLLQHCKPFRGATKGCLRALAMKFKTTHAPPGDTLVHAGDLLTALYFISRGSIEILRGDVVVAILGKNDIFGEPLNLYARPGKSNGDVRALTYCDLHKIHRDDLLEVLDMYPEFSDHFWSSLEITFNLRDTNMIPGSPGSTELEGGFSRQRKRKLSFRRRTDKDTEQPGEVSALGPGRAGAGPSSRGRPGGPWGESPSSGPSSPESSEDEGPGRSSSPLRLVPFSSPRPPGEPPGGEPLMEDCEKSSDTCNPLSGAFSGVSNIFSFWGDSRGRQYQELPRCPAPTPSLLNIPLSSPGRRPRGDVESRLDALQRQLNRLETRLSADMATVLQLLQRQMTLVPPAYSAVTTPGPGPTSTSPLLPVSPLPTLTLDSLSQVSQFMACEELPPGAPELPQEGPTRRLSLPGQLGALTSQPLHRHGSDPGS
Procedure: 4.7 hERG Channel Test—Manual Patch Clamp Assay
The aim of this assay is to determine the in-vitro effects of a test compound on hERG current ([…]) expressed in Human Embryonic Kidney (HEK) cells (evaluation of the blocking profile of test substance on the IKr-like potassium current mediated by hERG channel stably transfected in a human cell line), which is linked to cardiac safety.
The test substance is dissolved in pure dimethylsulfoxide (DMSO) by cold stirring to give a stock solution concentrated 333-fold as compared with the highest concentration to be tested. This stock solution is used to prepare the other stock solutions in DMSO. Each stock solution is used to prepare the solutions containing the final concentrations tested by dilution in extracellular solution (0.1, 1, 10 and 100 μM). Final concentration of DMSO should not not exceed 0.3%.
All formulations are prepared in glass containers.
If a slight opalescence persists at the highest concentration, a 50 μM (instead of 100 μM) concentration is tested.
DMSO diluted in extracellular solution (at the different concentrations used in the final test substance solutions) is used as vehicle.
The extracellular solution is constituted as follows (mM): K-gluconate: 4 mM/Na-gluconate: 145 mM/Mg-gluconate: 2 mM/Ca-gluconate: 3.5 mM/HEPES: 5 mM/glucose: 5 mM/mannitol: 20 mM. The pH is adjusted with NaOH to 7.40±0.05.
Human embryonic kidney (HEK293) cells are stably transfected with the hERG clone (Creacell) and are maintained at 37° C. in a 5% CO2/95% air incubator. Cells used for the study are transferred to an experimental chamber of approximately 2 mL which is maintained at a temperature of 35±0.5° C. by a thermoelectric device (Harvard Apparatus: Type TC-344B) and mounted on the platform of an inverted microscope (Olympus: Type IX-51 or Leica DMI3000 B). Cells are continuously superfused with Tyrode's solution constituted as follows (mM): NaCl: 145/KCl: 4/HEPES: 5/glucose: 5/CaCl2:1/MgCl2: 1.
Ionic currents from hERG-transfected cells are measured using the whole cell configuration of the patch clamp technique. Glass pipettes are pulled from borosilicate glass by a vertical puller (Sutter Instruments: Type P30). Pipette tip resistance is approximately 1.5 to 3.5 MΩ when filled with internal solution constituted as follows (mM): K-gluconate: 145/Mg-gluconate: 1/EGTA: 2/HEPES:5/K2ATP: 2.
The pipettes are connected to the input stage of a patch-clamp amplifier (Axon Instruments: Multiclamp 700B-1). Stimulation, data recording and analysis are performed using specialized Axon Instruments software (pClamp 9.2.0. or pClamp 10.3.0.2).
After rupture of the cell membrane (entering whole-cell mode), cells are stimulated every 10 seconds using the following protocol: 500 ms pulse to +10 mV from a holding potential of −80 mV followed by a 500 ms pulse to −40 mV during which tail current is measured.
Once the current under control conditions is stable, recordings are taken before (control) and after addition of the test substance. The effect of the test substance on tail current is monitored continuously until steady-state is reached. The peak tail current amplitude is averaged for 3 stimuli.
The following parameters are measured: • Cell capacitance (pF). • Peak tail current amplitude (pA).
Peak tail current measurements are normalized using the cell capacitance as an index of cell surface.
The cells will be considered as valid if cell capacitance <80 pF, access resistance <20 MΩ and holding current >−200 pA.
Results are expressed as absolute values and as percentage change from control (percentage of tail current inhibition).
The test substance is studied at 4 ascending concentrations on 3 hERG-transfected cells.
The concentration of test substance inducing 50% of inhibition (IC50) of tail current is determined, if possible, from each individual concentration-response curve. The equation is of the following form: […]

THP-1-Lucia NFκB cells = assay: NFκB-reporter assay in THP1-Lucia NFκB cells (LPS, IL-1β, TNFα trigger); format: cell-based; details: 24 h
From the text: This assay was used to evaluate the IRAK4 selectivity and potency of the compounds of the invention upon IRAK4 dependent (LPS and IL-1β) and independent triggering (TNFα), in a THP1-Lucia NFκB reporter assay.
THP-1-Lucia NFκB cells (Invivogen—5, rue Jean Rodier 31400 Toulouse France—cat #thp1-nfkb) were cultivated as recommended by the supplier using split cycles each cycle comprising a succession of thawing/expansion/seeding. The data reported were generated using cells having between 3 to 9 cycles. On the day of the experiment THP-1-Lucia NFκB cells were counted and seeded at a density of 1,000,000 cells/mL in culture medium (RPMI 1640 (Gibco, Cat #52400-025)+10% FBS (Sigma, Cat #F7524-500ML)+1% P/S (Gibco, Cat #15140-122)) by pipetting 54 μL/well in a 384 well plate. Thereafter, 6 μL of a 10× trigger solution was added to all wells, at final concentrations of 2.5, 10 and 3 ng/mL for respectively LPS, TNFα and IL-1β, except for ‘no trigger wells’ where 6 μL culture medium only was added.
After trigger addition, compounds were added with a digital compound dispenser, in an 8-points concentration range, using 3-fold dilution steps and normalizing the final DMSO concentration to 0.2% DMSO in all wells.
After 24 h incubation at 37° C., 5% CO2, 40 μL of supernatant was collected per well and transferred to a new 384 well plate that was then stored at −20° C. until further use.
For the readout, supernatant samples were thawed on ice and 5 μL sample was transferred from each well to a new 384-well plate. 20 μL of Quanti-Luc solution (Quanti-Luc powder (Invivogen, Cat #rep-glc1) dissolved in 25 mL sterile water as indicated by the manufacturer) was added to each well after which luminescence was immediately measured on an Envision instrument.
To measure the inhibition of LPS/TNFα/IL-1β-induced NFκB-reporter activity, percentage inhibition (PIN) values were calculated for all concentrations tested, compared to controls. […]

Row | Structure (SMILES) | hERG Manual Patch Clamp Single dose PIN (10 μM) (hERG channel) | IC50 (hERG channel) | EC50 (THP-1-Lucia NFκB cells; IL-1β 3 ng/mL, read-out: IL-1β driven NFκB-reporter activity, average pEC50 (converted)) | EC50 (THP-1-Lucia NFκB cells; LPS 2.5 ng/mL, read-out: LPS driven NFκB-reporter activity, average pEC50 (converted)) | TNFα mediated NFκB-reporter activity (THP-1-Lucia NFκB cells; TNFα 10 ng/mL)
1 | CNC(=O)c1cc2nc(CCC(C)(C)O)cn2cc1NC(=O)c1cccc(C(F)(F)F)n1 [Compound 2, 2-(3-hydroxy-3-methyl-butyl)-N-methyl-6-[[6-(trifluoromethyl)pyridine-2-carbonyl]amino]imidazo[1,2-a]pyridine-7-carboxamide] | −44.7% | 19.2 µM |  |  | 
2 | COc1cc2nc(CCC(C)(C)O)cn2cc1NC(=O)c1cccn(C2CC2)c1=O [Compound 5, 1-cyclopropyl-N-[2-(3-hydroxy-3-methyl-butyl)-7-methoxy-imidazo[1,2-a]pyridin-6-yl]-2-oxo-pyridine-3-carboxamide] | −25% |  |  |  | 
3 | COc1cc2nc(CCC(C)(C)O)cn2cc1NC(=O)c1cccn(C(F)F)c1=O [Compound 12, 1-(difluoromethyl)-N-[2-(3-hydroxy-3-methyl-butyl)-7-methoxy-imidazo[1,2-a]pyridin-6-yl]-2-oxo-pyridine-3-carboxamide] | −76.3% | 3.05 µM |  |  | 
4 | CC(C)(O)CCc1cn2cc(NC(=O)c3cccc(C(F)(F)F)n3)c(C(N)=O)cc2n1 [Compound 31, 2-(3-hydroxy-3-methyl-butyl)-6-[[6-(trifluoromethyl)pyridine-2-carbonyl]amino]imidazo[1,2-a]pyridine-7-carboxamide] | −46.7% | 16.3 µM |  |  | 
5 | CCOc1c(NC(=O)c2cccn(C3CC3)c2=O)cn2cc(CCC(C)(C)O)nc2c1F [Compound 37, 1-cyclopropyl-N-[7-ethoxy-8-fluoro-2-(3-hydroxy-3-methyl-butyl)imidazo[1,2-a]pyridin-6-yl]-2-oxo-pyridine-3-carboxamide] | −56.3% | 6.99 µM |  |  | 
6 | CCOc1c(NC(=O)c2cccn(C)c2=O)cn2cc(CCC(C)(C)O)nc2c1F [Compound 38, N-[7-ethoxy-8-fluoro-2-(3-hydroxy-3-methyl-butyl)imidazo[1,2-a]pyridin-6-yl]-1-methyl-2-oxo-pyridine-3-carboxamide] | −30.0% |  |  |  | 
7 | CCOc1c(NC(=O)c2cccn(C3CC3)c2=O)cn2cc(CCS(C)(=O)=O)nc2c1F [Compound 39, 1-cyclopropyl-N-[7-ethoxy-8-fluoro-2-(2-methylsulfonylethyl)imidazo[1,2-a]pyridin-6-yl]-2-oxo-pyridine-3-carboxamide] | −39.7% | > 10 µM | 0.0631 µM | 0.316 µM | no activity was observed
8 | COc1c(NC(=O)c2cccn(C3CC3)c2=O)cn2cc(CCC(C)(C)O)nc2c1F [Compound 42, 1-cyclopropyl-N-[8-fluoro-2-(3-hydroxy-3-methyl-butyl)-7-methoxy-imidazo[1,2-a]pyridin-6-yl]-2-oxo-pyridine-3-carboxamide] | −12% | > 92.3 µM |  |  | 
9 | CC(C)(O)CCc1cn2cc(NC(=O)c3cccc(C(F)(F)F)n3)c(C(=O)NCC(F)F)cc2n1 [Compound 48, N-(2,2-difluoroethyl)-2-(3-hydroxy-3-methylbutyl)-6-(6-(trifluoromethyl)picolinamido)imidazo[1,2-a]pyridine-7-carboxamide] | −20.5% |  |  |  | 
10 | CCNC(=O)c1cc2nc(CCC(C)(C)O)cn2cc1NC(=O)c1cccc(C(F)(F)F)n1 [Compound 49, N-ethyl-2-(3-hydroxy-3-methylbutyl)-6-(6-(trifluoromethyl)picolinamido)imidazo[1,2-a]pyridine-7-carboxamide] | −17% |  |  |  | 
